Where “and” joins values, the source holds several entries; their conditions need not be identical. Identical values can stand only once. Entries after “also recorded” stand apart in the source; their conditions may differ. Like-named read-outs stand apart in the source and are kept apart here. Where no end group is shown, it is not given here.
Key:
[1] = test system: HIV-1 TAR RNA (biotinylated TAR 27-mer); format: binding
HIV-1 TAR RNA (27-mer) = format: binding
[2] = test system: Tat ARM binding to HIV-1 TAR RNA
[3] = pH 7.5, read-out: KD (apparent)

PRQRTPRGQ (also: sidechain bridge or staple (positions not given here)) [TB-CP-6.7a, two terminal cysteines cross-linked via a methylene bridge]
koff [1]: 0.018 ± 0.0001 s⁻¹
koff × 10^−2 [1]: 1.90 10^−2 s^−1
kon [1]: 863.0 ± 59.0 M⁻¹ s⁻¹ and 803 ± 14 M⁻¹ s⁻¹
Kd [1, 3]: 22 µM
Kd ([1]; read-out: KD): 23 ± 0.1 µM

RRRTPR (also: sidechain bridge or staple (positions not given here)) [TB-CP-6.9a, cyclic peptide (11-mer]
Kd (HIV-1 TAR RNA (27-mer)): 5 ± 0.6 µM
ΔG° (HIV-1 TAR RNA (27-mer)): -7.1 ± 0.02 kcal/mol
ΔH° (HIV-1 TAR RNA (27-mer)): −7.2 ± 0.2 kca/mol
−TΔS° (HIV-1 TAR RNA (27-mer)): 0.1 ± 0.2 kcal/mol
Kd (HIV-1 TAR RNA (27-mer); pH 7.5): 5.3 ± 0.2 µM
TAR binding in presence of tRNA [1]: capable of binding under this condition
fold difference in TAR-binding affinity [1]: ~6 -fold
fold increase in kon [1]: 8 -fold
koff [1]: 0.024 ± 0.0001 s⁻¹
koff × 10^−2 [1]: 2.75 10^−2 s^−1
kon [1]: 7463 ± 130 M⁻¹ s⁻¹
kon × 10^2 ([1]; 0.625–20 μM): 76.50 10^2 M^−1s^−1
Kd [1, 3]: 3.6 µM
Kd ([1]; read-out: KD): 3.2 ± 0.8 µM
block of Tat ARM binding to TAR [2]: formed a complex with TAR that occluded Tat-binding sites; also recorded: effectively block the interaction of TAR with the Tat ARM

From PMC7864049, “Co-crystal structures of HIV TAR RNA bound to lab-evolved proteins show key roles for arginine relevant to the design of cyclic peptide TAR inhibitors” (The Journal of Biological Chemistry, 2021)
